One assay deals with T1, human GLP-1 receptor (Homo sapiens, UniProt P43220).
T1 construct: expressed in transfected cells; host or cells: CHO cells, transient transfection, pcDNA3
Description: cAMP production, CHO cells expressing GLP-1 receptor. Type of assay: cell-based. The settings on record: 10 μM forskolin, 15 min, 37°C, P < .001.

A further assay concerns the target T2, GFP-GLP-1 receptor (Homo sapiens, UniProt P43220).
T2 construct: linker: translated MCS of pEGFP-C3 plus translated 5'-untranslated region of clone hGLPR-6(20), between EGFP and the receptor (N); expressed in transfected cells; host or cells: CHO cells, transient transfection, pEGFP-C3
Description: cAMP production, CHO cells expressing GFP-GLP-1 receptor. In kind it is cell-based. The settings on record: 10 μM forskolin, 15 min, 37°C.

Description for GFP-GLP-1 receptor: (§1) Cells were plated in 6-well plates at 50 × 10^4 cells/well and incubated 24 hours in growth medium supplemented with 10% fetal bovine serum.
(§2) After stimulation, stimulating buffer was removed and replaced with 150 μL of TE buffer (50 mM Tris, 5 mM EDTA, pH = 7.4). Cells were lysed by scraping, followed by boiling at 100°C for 5 minutes and centrifuged at 16000× g for 10 minutes. The supernatant was collected and the total content of cAMP was measured by a specific radioimmunoassay (Amersham).
(§3) Statistical analysis (one-way ANOVA) was carried out by Prism 4 computer program (GraphPad Software, USA), which was used also for graphical presentation of the results. In ANOVA analysis Tukey-Kramer multiple comparison test was used to reveal significant differences between groups of interest; P > .05 was not considered significant.
Description for human GLP-1 receptor: as §1, §2, §3

For the compound `C=C[C@@]1(C)CC(=O)[C@]2(O)[C@@]3(C)[C@@H](O)CCC(C)(C)[C@@H]3[C@H](O)[C@H](OC(C)=O)[C@@]2(C)O1` [forskolin], the “cAMP production in response to forskolin (in words)” value at human GLP-1 receptor is “significantly increased”; on GFP-GLP-1 receptor (CHO cells expressing GFP-GLP-1 receptor, P < .001), “significantly increased”. The “Sensitivity to forskolin of GFP-GLP-1 receptor cells in comparison to GLP-1 receptor cells (in words)” value on GFP-GLP-1 receptor (Tukey-Kramer test) is “not more sensitive”.

The values are drawn from PMC2765688, “Functional Characterization of N-Terminally GFP-Tagged GLP-1 Receptor” (Journal of Biomedicine and Biotechnology, 2009).
